We go through eight molecules from ChEMBL document CHEMBL4699661, “Synthesis and Biological Characterization of Cyclic Disulfide-Containing Peptide Analogs of the Multifunctional Opioid/Neuropeptide FF Receptor Agonists That Produce Long-Lasting and Nontolerant Antinociception” (J Med Chem, 2020).

Data set [1] is described as follows: Ratio of drug level in brain to plasma in mouse. The format is ADME. Conditions: read-out: BPR.
In data set [2] the target is T1, Neuropeptide FF receptor 1 (Homo sapiens, UniProt Q9GZQ6). As to the kind of experiment: Agonist activity at NPFFR1 (unknown origin) expressed in HEK293-A cells assessed as inhibition of forskolin-stimulated cAMP accumulation incubated for 30 mins by competition PKA binding assay. The format is functional, cell-based.
The target of data set [3] is T2, Neuropeptide FF receptor 2 (Homo sapiens, UniProt Q9Y5X5). In words: Agonist activity at NPFFR2 (unknown origin) expressed in HEK293-A cells assessed as inhibition of forskolin-stimulated cAMP accumulation incubated for 30 mins by competition PKA binding assay relative to control. The format is functional, cell-based. As to conditions: filed as agonist.
The nature of data set [4]: Half life in 100% mouse plasma at 0.01 mM by RP-HPLC analysis. Type of data set: ADME, cell-free.
Data set [5] concerns the target T2, Neuropeptide FF receptor 2. In words: Agonist activity at NPFFR2 (unknown origin) expressed in HEK293-A cells assessed as inhibition of forskolin-stimulated cAMP accumulation incubated for 30 mins by competition PKA binding assay. The format is functional, cell-based.
Data set [6] addresses T3, Delta-type opioid receptor (Homo sapiens, UniProt P41143). As to the kind of experiment: Agonist activity at delta opioid receptor (unknown origin) expressed in HEK293-A cells assessed as inhibition of forskolin-stimulated cAMP accumulation incubated for 30 mins by competition PKA binding assay. The format is functional, cell-based.
In data set [7] the test system is Mus musculus. As to the kind of experiment: Analgesic activity in sc dosed Kunming mouse pre-treated with 1 mg/kg, sc opioid receptor antagonist naloxone by radiant heat tail flick test. Type of data set: functional, organism-based.
Data set [8] has as its system Mus musculus. As to the kind of experiment: Analgesic activity in sc dosed Kunming mouse pre-treated with 5 nmol, icv peripherally restricted opioid receptor antagonist naloxone methiodide by radiant heat tail flick test. Type of data set: functional, organism-based.
The subject of data set [9] is Mus musculus. As to the kind of experiment: Analgesic activity in sc dosed Kunming mouse pre-treated with 1 mg/kg, sc peripherally restricted opioid receptor antagonist naloxone methiodide by radiant heat tail flick test. Type of data set: functional, organism-based.
Data set [10] deals with Mus musculus. In words: Analgesic activity in sc dosed Kunming mouse by radiant heat tail flick test. Type of data set: functional.
Data set [11] has as its system Mus musculus. As to the kind of experiment: Analgesic activity in sc dosed Kunming mouse assessed as time duration during which antinociception lasted by radiant heat tail flick test. The format is functional.
Data set [12] has as its target Kappa-type opioid receptor (Homo sapiens, UniProt P41145). In words: Agonist activity at kappa opioid receptor (unknown origin) expressed in HEK293-A cells assessed as inhibition of forskolin-stimulated cAMP accumulation incubated for 30 mins by competition PKA binding assay. The format is functional, cell-based.
The subject of data set [13] is Mus musculus. As to the kind of experiment: Analgesic activity in Kunming mouse assessed as increase in antinociceptive effect at 0.03 pmol, icv pre-treated with 10 nmol, icv NPFF receptor antagonist RF9 by radiant heat tail flick test. The format is functional, organism-based.
Another data set has as its target Mu-type opioid receptor (Homo sapiens, UniProt P35372). In words: Agonist activity at mu opioid receptor (unknown origin) expressed in HEK293-A cells assessed as inhibition of forskolin-stimulated cAMP accumulation incubated for 30 mins by competition PKA binding assay. The format is functional, cell-based.
Data set [14] concerns Mus musculus. As to the kind of experiment: Analgesic activity in sc dosed Kunming mouse dosed once daily for 8 consecutive days by radiant heat tail flick test. Conditions: time 8.0 day. Type of data set: functional, organism-based.
Data set [15] has as its target T1, Neuropeptide FF receptor 1. As to the kind of experiment: Agonist activity at NPFFR1 (unknown origin) expressed in HEK293-A cells assessed as inhibition of forskolin-stimulated cAMP accumulation incubated for 30 mins by competition PKA binding assay relative to control. Conditions: filed as agonist. The format is functional, cell-based.
The test system of data set [16] is Mus musculus. As to the kind of experiment: Analgesic activity in icv dosed Kunming mouse by radiant heat tail flick test. Type of data set: functional.
Data set [17] addresses T3, Delta-type opioid receptor. As to the kind of experiment: Agonist activity at delta opioid receptor (unknown origin) expressed in HEK293-A cells assessed as inhibition of forskolin-stimulated cAMP accumulation incubated for 30 mins by competition PKA binding assay relative to control. The format is functional, cell-based.
For data set [18], the system named is Mus musculus. In words: Analgesic activity in icv dosed Kunming mouse dosed once daily for 8 consecutive days by radiant heat tail flick test. As to conditions: time 8.0 day. Type of data set: functional, organism-based.
Data set [19] in a line: Half life in 15% mouse brain at 0.01 mM by RP-HPLC analysis. Type of data set: ADME, tissue-based.
The subject of data set [20] is Mus musculus. As to the kind of experiment: Analgesic activity in icv dosed Kunming mouse assessed as time duration during which supraspinal antinociception lasted by radiant heat tail flick test. The format is functional.

The source made the active and inactive calls. No cut-off for these calls is given here. Non-standard residues stand in square brackets, D forms with d. Residues, ends and D or L forms follow the SMILES beside them.

As to `CN1CC[C@]23c4c5ccc(O)c4O[C@H]2[C@@H](O)C=C[C@H]3[C@H]1C5` [MORPHINE], in data set [1], the Kp is 0.74.

`N=C(N)NCCC[C@H](NC(=O)[C@H](CCC(N)=O)NC(=O)[C@@H]1CCCN1C(=O)[C@H](CS)NC(=O)[C@H](Cc1ccccc1)NC(=O)CNC(=O)[C@H](CS)NC(=O)[C@@H](N)Cc1ccc(O)cc1)C(=O)N[C@@H](Cc1ccccc1)C(N)=O`: the EC50 in [2] was determined as 24.9 nM; in [5], 752 nM; in data set [6] it was 218 nM; in [12] (read-out: EC50), 184 nM; at Mu-type opioid receptor, 1550 nM. Also, the maximal response (Emax) in data set [3] is 62.9%; in data set [15], 79.7%; in data set [17], 35.8%. This molecule yielded a half-life at 10 µM in data set [4] of 29.6 min. For the same molecule, the outcome with Mus musculus [7] and with Mus musculus [9] was inactive. Further, the outcome in the data set on Mus musculus [8], in the data set on Mus musculus [13] and in the data set with Mus musculus [14] was Active. Also, the ED50 with Mus musculus [10] amounted to 0.24 µmol/kg; with Mus musculus [16] it was 150 pmol. The Time in the data set with Mus musculus [11] amounted to 1.5 h.

In the case of `N=C(N)NCCC[C@H](NC(=O)[C@H](CCC(N)=O)NC(=O)[C@@H]1CCCN1C(=O)[C@H]1CSSC[C@H](NC(=O)[C@@H](N)Cc2ccc(O)cc2)C(=O)NCC(=O)N[C@@H](Cc2ccccc2)C(=O)N1)C(=O)N[C@@H](Cc1ccccc1)C(N)=O`, the EC50 in data set [2] amounted to 354 nM; in [5] it was 168 nM; in [6] it was 490 nM; in data set [12] (read-out: EC50) it was 743 nM; on Mu-type opioid receptor, 3830 nM. The outcome in the data set on Mus musculus [18], in the data set with Mus musculus [13] and in the data set on Mus musculus [14] was Active. Besides, the Emax in data set [3] was determined as 61.6%; in data set [15], 82.8%; in [17] (filed as agonist) it was 60.3%. In addition, the half-life at 10 µM in data set [4] came out at 17 min; in data set [19], 229 min. Further, the ED50 with Mus musculus [10] was 0.003 µmol/kg; with Mus musculus [16] it was 0.21 pmol. Also, the figures for the Time with Mus musculus [11] and in the data set with Mus musculus [20] were 4 h and 3 h, respectively.

Consider `CN1CC[C@]23c4c5ccc(O)c4O[C@H]2[C@@H](O[C@@H]2O[C@H](C(=O)O)[C@@H](O)[C@H](O)[C@H]2O)C=C[C@H]3[C@H]1C5` [MORPHINE GLUCURONIDE], for which the Kp in [1] turned out to be 0.05.

As for `N=C(N)NCCC[C@H](NC(=O)[C@H](CCC(N)=O)NC(=O)[C@@H]1CCCN1C(=O)[C@@H]1CSSC[C@H](NC(=O)[C@@H](N)Cc2ccc(O)cc2)C(=O)NCC(=O)N[C@@H](Cc2ccccc2)C(=O)N1)C(=O)N[C@@H](Cc1ccccc1)C(N)=O`, the EC50 in [2] was 32.5 nM; in data set [5], 120 nM; in data set [6] it was 162 nM; in data set [12] (read-out: EC50), 307 nM; at Mu-type opioid receptor, 788 nM. In addition, the result with Mus musculus [18], in the data set with Mus musculus [13] and with Mus musculus [14] was Active. Moreover, the figures for the Emax in data set [3], in [15] and in [17] (filed as agonist) were 79.6%, 80.2% and 63.6%, respectively. The half-life at 10 µM turned out to be 28.9 min in [4] and 58 min in data set [19]. Moreover, the ED50 was 0.18 µmol/kg with Mus musculus [10] and 182 pmol with Mus musculus [16]. Moreover, in the data set on Mus musculus [11], the Time stood at 1.5 h.

Turning to `C[C@@H](NC(=O)[C@@H](N)Cc1ccc(O)cc1)C(=O)NCC(=O)N[C@@H](Cc1ccccc1)C(=O)N[C@@H](CCC(N)=O)C(=O)N1CCC[C@H]1C(=O)N[C@@H](CCC(N)=O)C(=O)N[C@@H](CCCNC(=N)N)C(=O)N[C@@H](Cc1ccccc1)C(N)=O` (H-Y[dA]GFQPQRF-NH2), the ED50 was 1.37 µmol/kg in the data set on Mus musculus [10] and 390 pmol with Mus musculus [16]. The result with Mus musculus [13] and in the data set on Mus musculus [14] was Active.

For the molecule `N=C(N)NCCC[C@H](NC(=O)[C@H](CCC(N)=O)NC(=O)[C@@H]1CCCN1C(=O)[C@@H](CS)NC(=O)[C@H](Cc1ccccc1)NC(=O)CNC(=O)[C@@H](CS)NC(=O)[C@@H](N)Cc1ccc(O)cc1)C(=O)N[C@@H](Cc1ccccc1)C(N)=O`, the EC50 in data set [2] is 788 nM; in data set [5], 719 nM; in [6], 219 nM; in [12] (read-out: EC50) it was 2300 nM; on Mu-type opioid receptor, 171 nM. Also, the maximal response (Emax) stood at 58.4% in data set [3], 85.7% in [15] and 58.3% in data set [17] (filed as agonist). The molecule also showed a half-life at 10 µM in data set [4] of 30.9 min. Further, the values for the ED50 in the data set with Mus musculus [10] and in the data set on Mus musculus [16] were 0.06 µmol/kg and 1.13 pmol, respectively. In addition, the Time with Mus musculus [11] and in the data set on Mus musculus [20] was 3 h throughout. Moreover, the outcome in the data set on Mus musculus [13] and in the data set with Mus musculus [14] was Active.

Regarding `N=C(N)NCCC[C@H](NC(=O)[C@H](CCC(N)=O)NC(=O)[C@@H]1CCCN1C(=O)[C@@H](CS)NC(=O)[C@H](Cc1ccccc1)NC(=O)CNC(=O)[C@H](CS)NC(=O)[C@@H](N)Cc1ccc(O)cc1)C(=O)N[C@@H](Cc1ccccc1)C(N)=O`, the EC50 in data set [2] is 216 nM; in data set [5], 697 nM; in data set [6], 199 nM; in data set [12] (read-out: EC50), 75.1 nM; in [12] (read-out: pEC50 (converted)), 74.1 nM; at Mu-type opioid receptor it was 178 nM. Moreover, the Emax in data set [3] was found to be 55.1%; in data set [15], 81.8%; in data set [17] (filed as agonist) it was 50.4%. This molecule also showed a half-life at 10 µM in data set [4] of 31.4 min. Also, the result in the data set on Mus musculus [7] and with Mus musculus [9] was inactive. In addition, the outcome in the data set on Mus musculus [8], in the data set on Mus musculus [13] and in the data set with Mus musculus [14] was Active. In addition, the ED50 was determined as 0.1 µmol/kg in the data set on Mus musculus [10] and 6.42 pmol in the data set on Mus musculus [16]. Also, the Time in the data set on Mus musculus [11] and in the data set with Mus musculus [20] was 3 h throughout.
